The nature of test [1]: Antiplatelet activity against rabbit platelet assessed as inhibition of platelet-activating factor-induced platelet aggregation at 20 uM preincubated 3 mins before PAF challenge by turbidimetric method relative to control. Further details: Activity: scale not given: the % may be the effect or the level left. The test is classed as functional, cell-based, Oryctolagus cuniculus. As to conditions: for IC50: Oryctolagus cuniculus, Platelet.

The test system of test [2] is Brain. Put plainly: Antioxidant activity in Wistar rat brain homogenate assessed as inhibition of Fe2+-induced TBARS formation by lipid peroxidation assay. The test is classed as functional, tissue-based.
Test [3] can be described thus: Antiproliferative activity against PDGF-stimulated rat VSMC assessed as inhibition of [3H]thymidine incorporation into DNA after 20 hrs by liquid scintillation counting relative to control. Format: functional. Background: Uptake of a labelled nucleoside into DNA is a usual measure of proliferation.
Test [4] can be described thus: (§1) Antiproliferative activity against FCS-stimulated rat VSMC assessed as inhibition of [3H]thymidine incorporation into DNA after 20 hrs by liquid scintillation counting relative to control. Format: functional.
Test [5] relates to VSMC. Described as §1. Format: functional.
Test [6] is described as follows: (§2) Antiproliferative activity against ADP-stimulated rat VSMC assessed as inhibition of [3H]thymidine incorporation into DNA after 20 hrs by liquid scintillation counting relative to control. Format: functional.
The test system of test [7] is VSMC. The description is as §2. The test is classed as functional.
A short description of test [8]: (§3) Antiproliferative activity against 5-HT-stimulated rat VSMC assessed as inhibition of [3H]thymidine incorporation into DNA after 20 hrs by liquid scintillation counting relative to control. The test is classed as functional.
Test [9] has as its system VSMC. The description is as §3. Format: functional.
A short description of test [10]: Antiplatelet activity against rabbit platelet assessed as inhibition of arachidonic acid-induced platelet aggregation at 100 uM preincubated 3 mins before arachidonic acid challenge by turbidimetric method relative to control. Further details: scale not given: the % may be the effect or the level left. The test is classed as functional, Oryctolagus cuniculus.
Test [11] can be described thus: Antiplatelet activity against rabbit platelet assessed as inhibition of platelet-activating factor-induced platelet aggregation at 100 uM preincubated 3 mins before PAF challenge by turbidimetric method relative to control. Format: functional, Oryctolagus cuniculus. Further details: scale not given: the % may be the effect or the level left.
Test [12] in a line: Antiplatelet activity against rabbit platelet assessed as inhibition of arachidonic acid-induced platelet aggregation at 50 uM preincubated 3 mins before arachidonic acid challenge by turbidimetric method relative to control. Format: functional, Oryctolagus cuniculus. Further details: scale not given: the % may be the effect or the level left.
Test [13] is described as follows: Antiplatelet activity against rabbit platelet assessed as inhibition of platelet-activating factor-induced platelet aggregation at 50 uM preincubated 3 mins before PAF challenge by turbidimetric method relative to control. The test is classed as functional, Oryctolagus cuniculus. The arrangement: scale not given: the % may be the effect or the level left.
Test [14] can be described thus: Antiplatelet activity against rabbit platelet assessed as inhibition of arachidonic acid-induced platelet aggregation at 20 uM preincubated 3 mins before arachidonic acid challenge by turbidimetric method relative to control. Format: functional, Oryctolagus cuniculus. The arrangement: scale not given: the % may be the effect or the level left.
Test [15] in a line: Antiplatelet activity against rabbit platelet assessed as inhibition of thrombin-induced platelet aggregation at 300 uM preincubated 3 mins before thrombin challenge by turbidimetric method relative to control. The arrangement: scale not given: the % may be the effect or the level left. The test is classed as functional, Oryctolagus cuniculus.
Test [16] can be described thus: Antiplatelet activity against rabbit platelet assessed as inhibition of arachidonic acid-induced platelet aggregation at 300 uM preincubated 3 mins before arachidonic acid challenge by turbidimetric method relative to control. Further details: scale not given: the % may be the effect or the level left. The test is classed as functional, Oryctolagus cuniculus.
Test [17] is described as follows: Antiplatelet activity against rabbit platelet assessed as inhibition of collagen-induced platelet aggregation at 300 uM preincubated 3 mins before collagen challenge by turbidimetric method relative to control. The test is classed as functional, Oryctolagus cuniculus. Further details: scale not given: the % may be the effect or the level left.
Test [18] can be described thus: Antiplatelet activity against rabbit platelet assessed as inhibition of platelet-activating factor-induced platelet aggregation at 300 uM preincubated 3 mins before PAF challenge by turbidimetric method relative to control. The arrangement: scale not given: the % may be the effect or the level left. Format: functional, Oryctolagus cuniculus.
In test [19] the test system is Brain. Put plainly: Antioxidant activity in Wistar rat brain homogenate assessed as inhibition of Fe2+-induced TBARS formation at 100 uM by lipid peroxidation assay. The test is classed as functional, tissue-based.
Test [20] can be described thus: Antiplatelet activity against rabbit platelet assessed as inhibition of thrombin-induced platelet aggregation at 50 uM preincubated 3 mins before thrombin challenge by turbidimetric method relative to control. Further details: scale not given: the % may be the effect or the level left. Format: functional, Oryctolagus cuniculus.
A short description of test [21]: Antiplatelet activity against rabbit platelet assessed as inhibition of collagen-induced platelet aggregation at 50 uM preincubated 3 mins before collagen challenge by turbidimetric method relative to control. The test is classed as functional, Oryctolagus cuniculus. The arrangement: scale not given: the % may be the effect or the level left.
The nature of test [22]: Antiplatelet activity against rabbit platelet assessed as inhibition of thrombin-induced platelet aggregation at 100 uM preincubated 3 mins before thrombin challenge by turbidimetric method. The test is classed as functional, Oryctolagus cuniculus. The arrangement: scale not given: the % may be the effect or the level left.
A short description of test [23]: Antiplatelet activity against rabbit platelet assessed as inhibition of collagen-induced platelet aggregation at 100 uM preincubated 3 mins before collagen challenge by turbidimetric method relative to control. The arrangement: scale not given: the % may be the effect or the level left. Format: functional, Oryctolagus cuniculus.

On to `CC(C)=CCc1cc(-c2oc3c(CC=C(C)C)c(O)cc(O)c3c(=O)c2O)ccc1O` [BROUSSOFLAVONOL F], for which the IC50 in [1] came to 2.7 µM. Also, the Activity result in the test on Brain [2], in the test on VSMC [5], in the test on VSMC [7] and in the test on VSMC [9] was “Dose-dependent effect” each time. Also, the “inhibition (INH)” value in test [3] is listed as 127%; in test [4], 0%; in test [6], 7.8%; in test [8], 0%.
`CC(C)=CCc1c([C@@H]2CCc3ccc(O)cc3O2)cc2c(c1O)OC(C)(C)C(O)C2O` (stereo not given in full) [BROUSSOFLAVAN A]: the IC50 in test [1] was 2.1 µM. The Activity result with Brain [2] is “Dose-dependent effect”. The “inhibition (INH)” value is on record as 258% in test [3], 39.5% in [4], 67% in test [6] and 19% in test [8].
Take `CC(C)=CCc1c(-c2oc3c(CC=C(C)C)c(O)cc(O)c3c(=O)c2O)cc(O)c(O)c1CC=C(C)C` [BROUSSOFLAVONOL E]: in test [1], the IC50 was found to be 1 µM. Besides, the Activity entry in the test on Brain [2], in the test with VSMC [5], in the test on VSMC [7] and with VSMC [9] was “Dose-dependent effect” in each case. In addition, the “inhibition (INH)” value in test [3] was found to be 127%; in [4], 0%; in test [6], 0.4%; in [8], 0%.
As for `CC(C)=CCc1c(-c2ccc(O)cc2O)oc2c(CC=C(C)C)c(O)cc(O)c2c1=O` [KUWANON C], the Activity was 5.9% in test [10]; 26.9% in [11]; 60.2% in test [12]; 67.6% in test [13]; 83.9% in [14]; 78.8% in test [1]. The Activity was 54.8% in [15], 0% in [16], 5.5% in test [17] and 0% in test [18].
`Cc1cc(C(C)(C)C)c(O)c(C(C)(C)C)c1` [BUTYLATED HYDROXYTOLUENE]: the IC50 in test [1] is 14.5 µM. In addition, in the test on Brain [19], the inhibition is 91.3%.
Consider `CC(C)=CCc1cc2c(cc1O)O/C(=C\c1ccc(O)c(O)c1)C2=O` [BROUSSOAURONE A], for which, in [1], the IC50 came to 1.2 µM. Further, the Activity entry in the test with Brain [2] was “Dose-dependent effect”.
Take `CC(=O)Oc1ccccc1C(=O)O` [ASPIRIN]: the Activity is on record as 0% in [12], 90.5% in test [13], 91.9% in test [20] and 85.4% in [21].
Turning to `CC(C)=CCc1c(-c2ccc(O)cc2O)oc2c3c(cc(O)c2c1=O)OC(C)(C)C=C3` [MORUSIN], the Activity in [22] worked out at 81.8%; in test [10], 0%; in test [23] it was 5.3%; in test [11], 0%; in [12] it was 74.2%; in test [13], 62.5%. Also, the Activity in [14] is listed as 82.8%; in test [1] it was 81.3%.

By IC50 is commonly meant the point on the concentration scale where inhibition reaches its midpoint. The term inhibition denotes the drop in the measured response relative to a control, in per cent.

Values taken from ChEMBL document CHEMBL1158856, “Bioactive constituents of Morus australis and Broussonetia papyrifera” (J Nat Prod, 1997).
